The values below come from patent US11370798B2 (Vertex Pharmaceuticals Incorporated, priority 2012, dated 2022).

The subject of the test is HCT116 colorectal cancer cells. Briefly: Cisplatin sensitization assay (96 h cell viability MTS).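 Note: Test-compound concentration that lowers the Cisplatin IC50 by a set fold.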 The note with it: compound and Cisplatin added simultaneously, Cisplatin sensitization value. The test is classed as cell-based. A digest of the protocol: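 Viability read by MTS (1 h at 37° C) after 96 h co-exposure at 37° C, 5% CO2. Test compound and cisplatin were dosed simultaneously in a full concentration matrix, each 2-fold serially diluted from 10 μM final; sensitization values binned in μM.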
As to `C[N+]1([O-])CCN(C(=O)C2CCN(c3c(F)cncc3NC(=O)c3c(N)nn4cc(F)cnc34)CC2)CC1` [I-G-95, 4-(1-(3-(2-amino-6-fluoropyrazolo[1,5-a]pyrimidine-3-carboxamido)-5-fluoropyridin-4-yl)piperidine-4-carbonyl)-1-methylpiperazine 1-oxide], the “Cisplatin Sensitization Assay” value is reported as “+++ (Cisplatin sensitization value of <0.02 μM)”.

Regarding `CN1CC(N2CCN(C(=O)C3CCN(c4c(F)cncc4NC(=O)c4c(N)nn5cc(F)cnc45)CC3)CC2)C1` [I-G-96, 2-amino-6-fluoro-N-(5-fluoro-4-(4-(4-(1-methylazetidin-3-yl)piperazine-1-carbonyl)piperidin-1-yl)pyridin-3-yl)pyrazolo[1,5-a]pyrimidine-3-carboxamide], the “Cisplatin Sensitization Assay” value is given as “+++ (Cisplatin sensitization value of <0.02 μM)”.

Regarding `COCC1CN(C(=O)C2CCN(c3c(F)cncc3NC(=O)c3c(N)nn4cc(F)cnc34)CC2)C1` [I-G-98, 2-amino-6-fluoro-N-(5-fluoro-4-(4-(3-(methoxymethyl)azetidine-1-carbonyl)piperidin-1-yl)pyridin-3-yl)pyrazolo[1,5-a]pyrimidine-3-carboxamide], the “Cisplatin Sensitization Assay” value is on record as “+++ (Cisplatin sensitization value of <0.02 μM)”.

In the case of `CO[C@H]1CCN(C(=O)C2CCN(c3c(F)cncc3NC(=O)c3c(N)nn4cc(F)cnc34)CC2)C1` [I-G-99, (S)-2-amino-6-fluoro-N-(5-fluoro-4-(4-(3-methoxypyrrolidine-1-carbonyl)piperidin-1-yl)pyridin-3-yl)pyrazolo[1,5-a]pyrimidine-3-carboxamide], the “Cisplatin Sensitization Assay” value is on record as “+++ (Cisplatin sensitization value of <0.02 μM)”.

Regarding `Nc1nn2cc(F)cnc2c1C(=O)Nc1cnccc1N1CCN(C2COC2)CC1` [I-N-1, 2-amino-6-fluoro-N-(4-(4-(oxetan-3-yl)piperazin-1-yl)pyridin-3-yl)pyrazolo[1,5-a]pyrimidine-3-carboxamide], the “Cisplatin Sensitization Assay” value is given as “++ (Cisplatin sensitization value>0.02 μM but <0.2 μM)”.

`N#CCc1cnc2c(C(=O)Nc3cnccc3N3CCC(N)CC3)c(N)nn2c1` [I-N-2, 2-amino-N-(4-(4-aminopiperidin-1-yl)pyridin-3-yl)-6-(cyanomethyl)pyrazolo[1,5-a]pyrimidine-3-carboxamide]: the “Cisplatin Sensitization Assay” value was “+++ (Cisplatin sensitization value of <0.02 μM)”.

Turning to `CN1CCN(c2ccncc2NC(=O)c2c(N)nn3cc(F)cnc23)CC1` [I-N-3, 2-amino-6-fluoro-N-(4-(4-methylpiperazin-1-yl)pyridin-3-yl)pyrazolo[1,5-a]pyrimidine-3-carboxamide], the “Cisplatin Sensitization Assay” value was “+++ (Cisplatin sensitization value of <0.02 μM)”.

As for `CC(C)N1CCN(c2ccncc2NC(=O)c2c(N)nn3cc(F)cnc23)CC1` [I-N-4, 2-amino-6-fluoro-N-(4-(4-isopropylpiperazin-1-yl)pyridin-3-yl)pyrazolo[1,5-a]pyrimidine-3-carboxamide], the “Cisplatin Sensitization Assay” value is “+++ (Cisplatin sensitization value of <0.02 μM)”.

In the case of `CN1CCN(c2c(NC(=O)c3c(N)nn4cc(F)cnc34)cncc2C2CC2)CC1` [I-N-5, 2-amino-N-(5-cyclopropyl-4-(4-methylpiperazin-1-yl)pyridin-3-yl)-6-fluoropyrazolo[1,5-a]pyrimidine-3-carboxamide], the “Cisplatin Sensitization Assay” value was “++ (Cisplatin sensitization value>0.02 μM but <0.2 μM)”.

Consider `Nc1nn2cc(F)cnc2c1C(=O)Nc1cnccc1-n1ccnc1` [I-N-7, N-(4-(1H-imidazol-1-yl)pyridin-3-yl)-2-amino-6-fluoropyrazolo[1,5-a]pyrimidine-3-carboxamide], for which the “Cisplatin Sensitization Assay” value is listed as “++ (Cisplatin sensitization value>0.02 μM but <0.2 μM)”.

`CNCCc1cnn(-c2ccncc2NC(=O)c2c(N)nn3cc(F)cnc23)c1` [I-N-8, 2-amino-6-fluoro-N-(4-(4-(2-(methylamino)ethyl)-1H-pyrazol-1-yl)pyridin-3-yl)pyrazolo[1,5-a]pyrimidine-3-carboxamide]: the “Cisplatin Sensitization Assay” value is on record as “+ (Cisplatin sensitization value>0.2 μM but <5 μM)”.

For the molecule `CN(C)CCc1cnn(-c2ccncc2NC(=O)c2c(N)nn3cc(F)cnc23)c1` [I-N-9, 2-amino-N-(4-(4-(2-(dimethylamino)ethyl)-1H-pyrazol-1-yl)pyridin-3-yl)-6-fluoropyrazolo[1,5-a]pyrimidine-3-carboxamide], the “Cisplatin Sensitization Assay” value is “+ (Cisplatin sensitization value>0.2 μM but <5 μM)”.

`Nc1nn2cc(F)cnc2c1C(=O)Nc1cnccc1N1CCN([C@@H]2CCOC2)CC1` [I-N-10, (R)-2-amino-6-fluoro-N-(4-(4-(tetrahydrofuran-3-yl)piperazin-1-yl)pyridin-3-yl)pyrazolo[1,5-a]pyrimidine-3-carboxamide]: the “Cisplatin Sensitization Assay” value was “++ (Cisplatin sensitization value>0.02 μM but <0.2 μM)”.

As to `Nc1nn2cc(F)cnc2c1C(=O)Nc1cnccc1N1CCN(C2CCOCC2)CC1` [I-N-11, 2-amino-6-fluoro-N-(4-(4-(tetrahydro-2H-pyran-4-yl)piperazin-1-yl)pyridin-3-yl)pyrazolo[1,5-a]pyrimidine-3-carboxamide], the “Cisplatin Sensitization Assay” value is listed as “++ (Cisplatin sensitization value>0.02 μM but <0.2 μM)”.

Take `Nc1nn2cc(F)cnc2c1C(=O)Nc1cnccc1N1CCN([C@H]2CCOC2)CC1` [I-N-12, (S)-2-amino-6-fluoro-N-(4-(4-(tetrahydrofuran-3-yl)piperazin-1-yl)pyridin-3-yl)pyrazolo[1,5-a]pyrimidine-3-carboxamide]: the “Cisplatin Sensitization Assay” value was “+++ (Cisplatin sensitization value of <0.02 μM)”.

`Nc1nn2cc(F)cnc2c1C(=O)Nc1cncc(F)c1N1CCN(C2COC2)CC1` [I-N-13, 2-amino-6-fluoro-N-(5-fluoro-4-(4-(oxetan-3-yl)piperazin-1-yl)pyridin-3-yl)pyrazolo[1,5-a]pyrimidine-3-carboxamide]: the “Cisplatin Sensitization Assay” value is “+++ (Cisplatin sensitization value of <0.02 μM)”.

As to `CN1CCN(c2c(F)cncc2NC(=O)c2c(N)nn3cc(Cl)cnc23)CC1` [I-N-14, 2-amino-6-chloro-N-(5-fluoro-4-(4-methylpiperazin-1-yl)pyridin-3-yl)pyrazolo[1,5-a]pyrimidine-3-carboxamide], the “Cisplatin Sensitization Assay” value is “+++ (Cisplatin sensitization value of <0.02 μM)”.

Consider `CN1CCN(c2c(F)cncc2NC(=O)c2c(N)nn3cc(F)cnc23)CC1` [I-N-15, 2-amino-6-fluoro-N-(5-fluoro-4-(4-methylpiperazin-1-yl)pyridin-3-yl)pyrazolo[1,5-a]pyrimidine-3-carboxamide], for which the “Cisplatin Sensitization Assay” value is on record as “+++ (Cisplatin sensitization value of <0.02 μM)”.

Take `Cc1cncc(NC(=O)c2c(N)nn3cc(F)cnc23)c1N1CCN(C2COC2)CC1` [I-N-16, 2-amino-6-fluoro-N-(5-methyl-4-(4-(oxetan-3-yl)piperazin-1-yl)pyridin-3-yl)pyrazolo[1,5-a]pyrimidine-3-carboxamide]: the “Cisplatin Sensitization Assay” value was “+++ (Cisplatin sensitization value of <0.02 μM)”.

Consider `CCN1CCN(c2ccncc2NC(=O)c2c(N)nn3cc(F)cnc23)CC1` [I-N-17, 2-amino-N-(4-(4-ethylpiperazin-1-yl)pyridin-3-yl)-6-fluoropyrazolo[1,5-a]pyrimidine-3-carboxamide], for which the “Cisplatin Sensitization Assay” value was “+++ (Cisplatin sensitization value of <0.02 μM)”.

Turning to `Nc1nn2cc(F)cnc2c1C(=O)Nc1cnccc1N1CCN2CCC1CC2` [I-N-18, N-(4-(1,4-diazabicyclo[3.2.2]nonan-4-yl)pyridin-3-yl)-2-amino-6-fluoropyrazolo[1,5-a]pyrimidine-3-carboxamide], the “Cisplatin Sensitization Assay” value is recorded as “++ (Cisplatin sensitization value>0.02 μM but <0.2 μM)”.

On to `Nc1nn2cc(F)cnc2c1C(=O)Nc1cnccc1N1CCN(CC(F)(F)F)CC1` [I-N-20, 2-amino-6-fluoro-N-(4-(4-(2,2,2-trifluoroethyl)piperazin-1-yl)pyridin-3-yl)pyrazolo[1,5-a]pyrimidine-3-carboxamide], for which the “Cisplatin Sensitization Assay” value was “+++ (Cisplatin sensitization value of <0.02 μM)”.

For `Nc1nn2cc(F)cnc2c1C(=O)Nc1cnccc1N1CCN2CCC[C@H]2C1` [I-N-21, (S)-2-amino-6-fluoro-N-(4-(hexahydropyrrolo[1,2-a]pyrazin-2(1H)-yl)pyridin-3-yl)pyrazolo[1,5-a]pyrimidine-3-carboxamide], the “Cisplatin Sensitization Assay” value is given as “+++ (Cisplatin sensitization value of <0.02 μM)”.

`C[C@@H]1CN(C2COC2)CCN1c1ccncc1NC(=O)c1c(N)nn2cc(F)cnc12` [I-N-23, (R)-2-amino-6-fluoro-N-(4-(2-methyl-4-(oxetan-3-yl)piperazin-1-yl)pyridin-3-yl)pyrazolo[1,5-a]pyrimidine-3-carboxamide]: the “Cisplatin Sensitization Assay” value is “+++ (Cisplatin sensitization value of <0.02 μM)”.

As to `C[C@H]1CN(C2COC2)CCN1c1ccncc1NC(=O)c1c(N)nn2cc(F)cnc12` [I-N-24, (S)-2-amino-6-fluoro-N-(4-(2-methyl-4-(oxetan-3-yl)piperazin-1-yl)pyridin-3-yl)pyrazolo[1,5-a]pyrimidine-3-carboxamide], the “Cisplatin Sensitization Assay” value is “+++ (Cisplatin sensitization value of <0.02 μM)”.

With `Nc1nn2cc(F)cnc2c1C(=O)Nc1cnccc1-n1cccn1` [I-N-26, N-(4-(1H-pyrazol-1-yl)pyridin-3-yl)-2-amino-6-fluoropyrazolo[1,5-a]pyrimidine-3-carboxamide], the “Cisplatin Sensitization Assay” value is given as “+ (Cisplatin sensitization value>0.2 μM but <5 μM)”.

Regarding `Nc1nn2cc(F)cnc2c1C(=O)Nc1cnccc1-n1cnc(C(F)(F)F)c1` [I-N-27, 2-amino-6-fluoro-N-(4-(4-(trifluoromethyl)-1H-imidazol-1-yl)pyridin-3-yl)pyrazolo[1,5-a]pyrimidine-3-carboxamide], the “Cisplatin Sensitization Assay” value is “++ (Cisplatin sensitization value>0.02 μM but <0.2 μM)”.

For the molecule `Cc1nccn1-c1ccncc1NC(=O)c1c(N)nn2cc(F)cnc12` [I-N-28, 2-amino-6-fluoro-N-(4-(2-methyl-1H-imidazol-1-yl)pyridin-3-yl)pyrazolo[1,5-a]pyrimidine-3-carboxamide], the “Cisplatin Sensitization Assay” value is given as “+++ (Cisplatin sensitization value of <0.02 μM)”.
